The experiment deals with human TLR2 (Homo sapiens, UniProt O60603). Put plainly: Reporter gene assay: HEK 293 cells stably transfected with human TLR2 and NF-kB-driven luciferase reporter. The note with it: for Emax: HEK293, 7 h, read-out: Hek-TLR2 (% Eff); for EC50: HEK 293 stably transfected with human TLR2 and pNifty-Luciferase, 7 hours incubation, concentration giving 50% of maximal signal; for Hek-TLR2 (% Eff): % Eff relative to Pam3CSK4, HEK 293 human TLR2 NF-kB luciferase. A general note: Reporter assays use an easily measured gene product as a stand-in for the process of interest.

Like-named read-outs stand apart in the source and are kept apart here. Where only a bound is given, the exact number is not on record here.

Chain of human TLR2 (O60603 21-784): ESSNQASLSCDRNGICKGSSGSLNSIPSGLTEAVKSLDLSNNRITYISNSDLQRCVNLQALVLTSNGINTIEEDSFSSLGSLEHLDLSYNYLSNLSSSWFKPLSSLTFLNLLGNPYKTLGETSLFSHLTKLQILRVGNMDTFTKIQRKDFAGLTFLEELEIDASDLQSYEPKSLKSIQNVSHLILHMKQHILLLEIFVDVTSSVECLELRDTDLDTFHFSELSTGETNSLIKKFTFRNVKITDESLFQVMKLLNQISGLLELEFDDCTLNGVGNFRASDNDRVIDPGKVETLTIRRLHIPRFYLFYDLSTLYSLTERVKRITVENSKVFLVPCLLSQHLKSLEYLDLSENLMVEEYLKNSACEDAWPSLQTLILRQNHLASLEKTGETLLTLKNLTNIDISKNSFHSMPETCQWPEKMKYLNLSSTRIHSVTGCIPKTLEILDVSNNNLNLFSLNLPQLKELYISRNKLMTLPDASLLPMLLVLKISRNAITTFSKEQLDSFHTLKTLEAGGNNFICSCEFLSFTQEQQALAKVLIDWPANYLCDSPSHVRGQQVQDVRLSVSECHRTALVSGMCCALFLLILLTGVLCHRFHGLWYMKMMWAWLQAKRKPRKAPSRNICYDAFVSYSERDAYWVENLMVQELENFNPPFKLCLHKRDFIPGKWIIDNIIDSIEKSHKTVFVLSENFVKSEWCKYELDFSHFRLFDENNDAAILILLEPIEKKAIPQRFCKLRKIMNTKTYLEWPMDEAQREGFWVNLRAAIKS

Regarding `CCCCCCCCCCCCOC[C@H](CSC[C@H](N)C(=O)N[C@@H](C)COCCOCCOCCP(=O)(O)O)OCCCCCCCCCCCC` [Example 29, ((11S,14R,18R)-14-amino-18-(dodecyloxy)-11-methyl-13-oxo-3,6,9,20-tetraoxa-16-thia-12-azadotriacontyl)phosphonic acid], the Emax amounted to 74%. Further, the EC50 (Hek-TLR2 μM (EC50)) was 1850 nM.
For `CCCCCCCCCCCCOC[C@H](CSC[C@H](N)C(=O)N[C@@H](C)C(=O)NCCOCCOCCP(=O)(O)O)NC(=O)CCCCCCCCCCC` [Example 31, ((11S,14R,18R)-14-amino-18-dodecanamido-11-methyl-10,13-dioxo-3,6,20-trioxa-16-thia-9,12-diazadotriacontyl)phosphonic acid], the Emax stood at 35%. This compound also yielded an EC50 (Hek-TLR2 μM (EC50)) of 2910 nM.
In the case of “(4R,7S,10R,14R)-10-amino-4-carbamoyl-7-ethyl-6,9,17-trioxo-14-(palmitoyloxy)-16-oxa-12-thia-5,8-diazadotriacontan-1-oic acid [Example 48]”, the “Hek-TLR2 (% Eff)” value is given as “(106%)”. The EC50 (read-out: Hek-TLR2 μM (EC50)) was 1360 nM.
In the case of `CCCCCCCCCCCCOC[C@H](CSC[C@H](N)C(=O)N[C@@H](C)COCCOCCOCCP(=O)(O)O)NC(=O)CCCCCCCCCCC` [Example 28, ((11S,14R,18R)-14-amino-18-dodecanamido-11-methyl-13-oxo-3,6,9,20-tetraoxa-16-thia-12-azadotriacontyl)phosphonic acid], the Emax turned out to be 37%. Further, the EC50 (Hek-TLR2 μM (EC50)) is 990 nM.
On to `CCCCCCCCCCCCOC[C@H](CSC[C@H](N)C(=O)NCCOCCOCCOCCP(=O)(O)O)OC(=O)CCCCCCCCCCC` [Example 27, ((14R,18R)-14-amino-18-(dodecanoyloxy)-13-oxo-3,6,9,20-tetraoxa-16-thia-12-azadotriacontyl)phosphonic acid], for which the Emax is 77%. The compound further returned an EC50 (Hek-TLR2 μM (EC50)) of 610 nM.
Regarding `CCCCCCCCCCCC(=O)OC[C@H](CSC[C@H](N)C(=O)NCCCCCCCCCC(=O)O)OC(=O)CCCCCCCCCCC` [Example 42, 10-((R)-2-amino-3-(((R)-2,3-bis(dodecanoyloxy)propyl)thio)propanamido)decanoic acid], the Emax came out at 101%. Where the note is “Hek-TLR2 μM (EC50)”, this compound registered an EC50 of 4400 nM.
`CCCCCCCCCCNC(=O)OC[C@H](CSC[C@H](N)C(=O)NCCOCCOCCOCCP(=O)(O)O)OC(=O)NCCCCCCCCCC` [Example 83, ((14R,18R)-14-amino-18-((decylcarbamoyl)oxy)-13,21-dioxo-3,6,9,20-tetraoxa-16-thia-12,22-diazadotriacontyl)phosphonic acid]: the Emax amounted to 76%. For the setting “Hek-TLR2 μM (EC50)”, this compound displayed an EC50 of 820 nM.
In the case of `CCCCCCCCCCCCOC[C@H](CSC[C@H](N)C(=O)N[C@@H](C)C(=O)NCCOCCOCCP(=O)(O)O)OCCCCCCCCCCCC` [Example 30, ((11S,14R,18R)-14-amino-18-(dodecyloxy)-11-methyl-10,13-dioxo-3,6,20-trioxa-16-thia-9,12-diazadotriacontyl)phosphonic acid], the Emax is 59%. In addition, under “Hek-TLR2 μM (EC50)”, the EC50 was 920 nM.
Taken in the same sequence, the figures for `CCCCCCCCCCCC(=O)OC[C@H](CSC[C@H](N)C(=O)NCCCCCN)OC(=O)CCCCCCCCCCC` [Example 7, (R)-3-((R)-2-amino-3-(5-aminopentylamino)-3-oxopropylthio)propane-1,2-diyl didodecanoate] were 113% and 1220 nM.
As to `CCCCCCCCCCCC(=O)OC[C@H](CSC[C@H](N)C(=O)NC(Cc1ccccc1)c1ccccc1)OC(=O)CCCCCCCCCCC` (stereo partly drawn) [Example 67, (2R)-3-(((2R)-2-amino-3-((1,2-diphenylethyl)amino)-3-oxopropyl)thio)propane-1,2-diyl didodecanoate], the Emax stood at 64%. Moreover, the EC50 (Hek-TLR2 μM (EC50)) is 68 nM.
As to `CCCCCCCCCCCC(=O)OC[C@H](CSC[C@H](N)C(=O)NC(C)CCC(C)C)OC(=O)CCCCCCCCCCC` (stereo partly drawn) [Example 74, (2R)-3-(((2R)-2-amino-3-((5-methylhexan-2-yl)amino)-3-oxopropyl)thio)propane-1,2-diyl didodecanoate], the Emax amounted to 105%. Under “Hek-TLR2 μM (EC50)”, this compound yielded a concentration giving a half-maximal response (EC50) of 190 nM.
Turning to `CCCCCCCCCCCCOC[C@H](CSC[C@H](N)C(=O)NCCOCCOCCC(F)(F)P(=O)(O)O)NC(=O)CCCCCCCCCCC` [Example 35, (12R,16R)-12-amino-16-dodecanamido-1,1-difluoro-11-oxo-4,7,18-trioxa-14-thia-10-azatriacontylphosphonic acid], the Emax was 15%. For the same compound, a half-maximal effect (Hek-TLR2 μM (EC50)) (EC50) was put at 770 nM.
Turning to `CCCCCCCCCCNC(=O)OC[C@H](CSC[C@H](N)C(=O)NCCOCCOCCOCCP(=O)(O)O)OC(=O)NCCCCCCCCCC` [Example 36, (14R,18R)-14-amino-18-(decylcarbamoyloxy)-13,21-dioxo-3,6,9,20-tetraoxa-16-thia-12,22-diazadotriacontylphosphonic acid], the “Hek-TLR2 (% Eff)” value is “(76%)”. Besides, the EC50 (Hek-TLR2 μM (EC50)) amounted to 822 nM.
Turning to `CCCCCCCCCCNC(=O)OC[C@H](CSC[C@H](NC(C)=O)C(=O)NCCOCCOCCOCCP(=O)(O)O)OC(=O)NCCCCCCCCCC` [Example 82, ((14R,18R)-14-acetamido-18-((decylcarbamoyl)oxy)-13,21-dioxo-3,6,9,20-tetraoxa-16-thia-12,22-diazadotriacontyl)phosphonic acid], the Emax came out at 84%. The same compound had an EC50 (Hek-TLR2 μM (EC50)) of 830 nM.
Consider `CCCCCCCCCCCCCCCCOC[C@H](CSC[C@H](N)C(=O)NCCOCCOCCOCCP(=O)(O)O)OCCCCCCCCCCCCCCCC` [Example 76, ((14R,18R)-14-amino-18-(hexadecyloxy)-13-oxo-3,6,9,20-tetraoxa-16-thia-12-azahexatriacontyl)phosphonic acid], for which the Emax was 109%. The EC50 (Hek-TLR2 μM (EC50)) is 3450 nM.
For the compound `CCCCCCCCCCCC(=O)OC[C@H](CSC[C@H](N)C(=O)NCCCOCCOCCOCCCN)OC(=O)CCCCCCCCCCC` [Example 64, (16R,20R)-1,16-diamino-15-oxo-4,7,10-trioxa-18-thia-14-azahenicosane-20,21-diyl didodecanoate], the Emax stood at 124%. For the setting “Hek-TLR2 μM (EC50)”, this compound showed an EC50 of 498 nM.
Taken in the same sequence, the figures for `CCCCCCCCCCCC(=O)OC[C@H](CSC[C@H](N)C(=O)NCCCS(=O)(=O)O)OC(=O)CCCCCCCCCCC` [Example 84, 3-((R)-2-amino-3-(((R)-2,3-bis(dodecanoyloxy)propyl)thio)propanamido)propane-1-sulfonic acid] were 72% and 5560 nM.
With `CCCCCCCCCCCC(=O)OC[C@H](CSC[C@H](N)C(=O)NCCOCCOCCOCCC(=O)O)OC(=O)CCCCCCCCCCC` [Example 86, (15R,19R)-15-amino-19-(dodecanoyloxy)-14,22-dioxo-4,7,10,21-tetraoxa-17-thia-13-azatritriacontan-1-oic acid], the Emax was 84%. For the same compound, the 50% effective concentration (EC50) (Hek-TLR2 μM (EC50)) is 900 nM.
In the case of `CCCCCCCCCCCC(=O)OC[C@H](CSC[C@H](N)C(=O)NCCOCCOCCC(F)(F)P(=O)(O)O)OC(=O)CCCCCCCCCCC` [Example 4, (12R,16R)-12-amino-16-(dodecanoyloxy)-1,1-difluoro-11,19-dioxo-4,7,18-trioxa-14-thia-10-azatriacontylphosphonic acid], the Emax stood at 101%. The compound further yielded an EC50 (Hek-TLR2 μM (EC50)) of 31 nM.
Turning to `CCCCCCCCCCCC(=O)OC[C@H](CSC[C@H](N)C(=O)NCCCN1CCOCC1)OC(=O)CCCCCCCCCCC` [Example 59, (R)-3-(((R)-2-amino-3-((3-morpholinopropyl)amino)-3-oxopropyl)thio)propane-1,2-diyl didodecanoate], the Emax worked out at 121%. Besides, the EC50 (Hek-TLR2 μM (EC50)) is 710 nM.
The matching figures for `CCCCCCCCCCCCOC[C@H](CSC[C@H](N)C(=O)N[C@@H](CO)C(=O)NCCOCCOCCP(=O)(O)O)NC(=O)CCCCCCCCCCC` [Example 81, ((11S,14R,18R)-14-amino-18-dodecanamido-11-(hydroxymethyl)-10,13-dioxo-3,6,20-trioxa-16-thia-9,12-diazadotriacontyl)phosphonic acid]: 30% and 1970 nM.
For `CCCCCCCCCCCC(=O)OC[C@H](CSC[C@H](N)C(=O)NCCCOCCCCOCCCN)OC(=O)CCCCCCCCCCC` [Example 8, (2R,6R)-6,20-diamino-7-oxo-12,17-dioxa-4-thia-8-azaicosane-1,2-diyl didodecanoate], the Emax was determined as 98%. Under “Hek-TLR2 μM (EC50)”, a half-maximal effect (EC50) was put at 810 nM.
On to `CCCCCCCCCCCC(=O)NC[C@H](CSC[C@H](N)C(=O)NC1(CO)CC1)NC(=O)CCCCCCCCCCC` [Example 12, N,N′—((R)-3-((R)-2-amino-3-(1-(hydroxymethyl)cyclopropylamino)-3-oxopropylthio)propane-1,2-diyl)didodecanamide], for which the Emax is 3.5%. Further, for the setting “Hek-TLR2 μM (EC50)”, the EC50 was more than 100000 nM.
`CCCCCCCCCCCC(=O)OC[C@H](CSC[C@H](N)C(=O)NCCc1ccc(OCCC(C)C)cc1)OC(=O)CCCCCCCCCCC` [Example 44, (R)-3-(((R)-2-amino-3-((4-(isopentyloxy)phenethyl)amino)-3-oxopropyl)thio)propane-1,2-diyl didodecanoate]: the Emax came out at 72%. In addition, under “Hek-TLR2 μM (EC50)”, it took 8170 nM to reach a half-maximal effect (EC50).
For the compound `CCCCCCCCCCCC(=O)OC[C@H](CSC[C@H](N)C(=O)NCCCOCCOCCOCCCNC(=O)C(N)CS)OC(=O)CCCCCCCCCCC` (stereo partly drawn) [Example 9, (20R,24R)-2,20-diamino-1-mercapto-3,19-dioxo-8,11,14-trioxa-22-thia-4,18-diazapentacosane-24,25-diyl didodecanoate], the Emax worked out at 73%. The same compound yielded an EC50 (Hek-TLR2 μM (EC50)) of 247 nM.
Taken in the same sequence, the figures for `CCCCCCCCCCCC(=O)OC[C@H](CSC[C@H](N)C(=O)N[C@@H](CO)C(=O)NCCOCCOCCOCCC(=O)O)OC(=O)CCCCCCCCCCC` [Example 88, (15S,18R,22R)-18-amino-22-(dodecanoyloxy)-15-(hydroxymethyl)-14,17,25-trioxo-4,7,10,24-tetraoxa-20-thia-13,16-diazahexatriacontan-1-oic acid] were 145% and 9.2 nM.

A word on the EC50: it is the concentration needed to bring the measured effect to its halfway point.

(Values after US9365506B2, “Compounds and compositions as TLR2 agonists” (NOVARTIS AG, priority 2010, dated 2016).)
